Assay results taken from ChEMBL document CHEMBL5604063, “ASAP - DENV-2 NS2B-NS3 protease fluorescence dose response” (2024).
“And” between values parts separate entries of the source, which are not always exact repeats. Identical values can stand only once.

Assays:
Genome polyprotein [1] = biological target: T1, Genome polyprotein (dengue virus type 2, UniProt P29990); assay type: functional, Thailand/16681/1984
Genome polyprotein [2] = biological target: T1, Genome polyprotein; assay type: functional, Thailand/16681/1984; remark: listed apart in the source

T1 sequence (P29990 1346-1475 limits assumed): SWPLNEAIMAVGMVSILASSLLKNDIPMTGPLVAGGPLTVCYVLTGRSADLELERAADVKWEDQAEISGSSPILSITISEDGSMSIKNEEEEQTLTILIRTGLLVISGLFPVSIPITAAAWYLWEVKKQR
T1 sequence (P29990 1476-2093 limits assumed): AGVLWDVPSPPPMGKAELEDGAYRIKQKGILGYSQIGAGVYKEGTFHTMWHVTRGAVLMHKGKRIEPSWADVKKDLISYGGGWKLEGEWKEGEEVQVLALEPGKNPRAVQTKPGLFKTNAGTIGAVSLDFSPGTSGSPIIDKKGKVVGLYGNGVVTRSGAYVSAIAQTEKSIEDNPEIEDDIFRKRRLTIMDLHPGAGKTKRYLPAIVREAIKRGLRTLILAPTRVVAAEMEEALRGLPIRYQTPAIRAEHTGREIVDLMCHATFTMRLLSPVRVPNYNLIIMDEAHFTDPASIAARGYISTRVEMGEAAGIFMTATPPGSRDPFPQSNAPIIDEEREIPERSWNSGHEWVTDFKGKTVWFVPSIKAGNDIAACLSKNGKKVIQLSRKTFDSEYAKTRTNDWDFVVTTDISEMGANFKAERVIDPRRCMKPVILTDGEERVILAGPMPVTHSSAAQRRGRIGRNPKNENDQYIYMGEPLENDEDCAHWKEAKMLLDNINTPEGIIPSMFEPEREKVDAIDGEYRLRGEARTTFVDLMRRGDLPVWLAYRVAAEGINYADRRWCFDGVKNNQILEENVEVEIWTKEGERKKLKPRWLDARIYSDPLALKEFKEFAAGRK

SMILES | IC50 (Genome polyprotein [1]) | IC50 (Genome polyprotein [2])
O=C(Nc1ccc2c(c1)CNC2)c1cc(Cl)cc2cn[nH]c12 | > 100 µM | > 99.5 µM
Cc1c[nH]c2ncnc(C(=O)Nc3ccc4c(c3)CNC4)c12 | > 100 µM | > 99.5 µM
O=C(Nc1ccc2c(c1)CNC2)[C@H]1C[C@@H]1c1ccccc1 | > 100 µM | > 99.5 µM
COc1nn(C)cc1-c1nc2c(C(=O)Nc3ccc4c(c3)CNC4)cc(Cl)cc2[nH]1 | > 100 µM | > 99.5 µM
Nc1noc2cccc(C(=O)Nc3ccc4c(c3)CNC4)c12 | > 100 µM | > 99.5 µM
O=C(Cc1ccc2ncsc2c1)Nc1ccc2c(c1)CNC2 | > 100 µM | > 99.5 µM
Clc1cc([C@H](C#Cc2ccccc2)Nc2ccc3c(c2)CNC3)c2cn[nH]c2c1 | 88.8 µM | > 99.5 µM
Cc1nc2c(C(=O)Nc3ccc4c(c3)CNC4)cccc2[nH]1 | > 100 µM | > 99.5 µM
O=C(Nc1ccc2c(c1)CNC2)c1cc(Br)cc2[nH]c(=O)[nH]c12 | 54.4 µM | 67.1 µM
Cc1cc2c(C(=O)Nc3ccc4c(c3)CNC4)cccc2[nH]1 | > 100 µM | > 99.5 µM
O=C(Nc1ccc2c(c1)CNC2)c1ccc2sncc2c1 | > 100 µM | > 99.5 µM
O=C(NCCCn1ccnc1)[C@H](Nc1ccc2c(c1)CNC2)c1cc(Cl)cc(C2CC2)c1 | > 100 µM | > 99.5 µM
O=C(Nc1ccc2c(c1)CNC2)c1cc(Cl)ccc1-n1cncn1 | > 100 µM | > 99.5 µM
Clc1cc([C@@H]2C[C@H]2c2cccc(C3CCNCC3)c2)c2cn[nH]c2c1 | 9.27 µM and 13.3 µM | 7.93 µM and 6.82 µM and 6.33 µM
Cc1nc(C2CC2)[nH]c1C(=O)Nc1cc(CCCN)ccn1 | > 100 µM | > 99.5 µM
CC(C)c1nccn1C[C@H]1CCCN1C(=O)Nc1ccc2c(c1)CNC2 | > 100 µM | > 99.5 µM
O=C1COc2c(cccc2C(=O)Nc2ccc3c(c2)CNC3)N1 | > 100 µM | > 99.5 µM
Cc1c(C(=O)Nc2cc(-c3cccnc3)ccn2)cc(C2CC2)n1C | 6.7 µM and 9.67 µM | 9.09 µM and 8.4 µM and 6.31 µM
O=C(Nc1ccc2c(c1)CNC2)c1cc(F)cc2[nH]cnc12 | > 100 µM | 99 µM
O=C(Nc1ccc2c(c1)CNC2)c1cccc2ccncc12 | > 100 µM | > 99.5 µM
O=C(Nc1ccc2c(c1)CNC2)c1cc(Cl)nc2[nH]ccc12 | > 100 µM | > 99.5 µM
Cc1nc2c(C(=O)Nc3ccc4c(c3)CNC4)cc(Cl)cc2[nH]1 | 80.9 µM | > 99.5 µM

SMILES | IC50 (Genome polyprotein [1]) | IC50 (Genome polyprotein [2])
N#C[C@H](Nc1ccc2c(c1)CNC2)c1cncc2ccccc12 | > 100 µM | > 99.5 µM
O=C(Nc1ccc2c(c1)CNC2)c1ccc2nc(O)sc2c1 | > 100 µM | > 99.5 µM
CC1CCN(CC[C@H]2CCCN2C(=O)Nc2ccc3c(c2)CNC3)CC1 | > 100 µM | > 99.5 µM
O=C(Nc1ccc2c(c1)CNC2)c1cc2ncccc2s1 | > 100 µM | > 99.5 µM
N#Cc1ccc(C(=O)Nc2ccc3c(c2)CNC3)cc1Cl | > 100 µM | > 99.5 µM
CC(C)(C)OC(=O)N1Cc2cc(NC(=O)c3cc(Cl)cc4[nH]ncc34)cc(Br)c2C1 | > 100 µM | > 99.5 µM
COC(=O)C(C)(C)NC(=O)[C@H](Nc1ccc2c(c1)CNC2)c1cc(Cl)cc(C2CC2)c1 | > 100 µM | > 99.5 µM
O=C(Nc1ccc2c(c1)CNC2)c1cccc(O)c1 | > 100 µM | > 99.5 µM
CCOCC1(c2nc3c(C(=O)Nc4ccc5c(c4)CNC5)cc(Cl)cc3[nH]2)CC1 | > 100 µM | 87.5 µM
O=C(Nc1ccc2c(c1)CNC2)c1nc(Cl)nc2[nH]ccc12 | > 100 µM | > 99.5 µM
Cc1[nH]c2ccccc2c1[C@H]1CCN(C(=O)Nc2ccc3c(c2)CNC3)C1 | > 100 µM | > 99.5 µM
O=C1COc2cc(C(=O)Nc3ccc4c(c3)CNC4)ccc2N1 | > 100 µM | > 99.5 µM
O=C(Nc1ccc2c(c1)CNC2)c1cc(C(F)(F)F)nc2[nH]ccc12 | > 100 µM | > 99.5 µM
CN(C)C(=O)N1Cc2ccc(NC(=O)c3cc(Cl)cc4[nH]ncc34)cc2C1 | > 100 µM | > 99.5 µM
CC1=CC[C@H](c2cccc(-c3nn[nH]n3)c2)Nc2cc(Cl)ccc21 | 33.9 µM | 69.6 µM
Cc1cc(C)n([C@H]2CCCN(C(=O)Nc3ccc4c(c3)CNC4)C2)n1 | > 100 µM | > 99.5 µM
O=C(Nc1ccc2c(c1)CNC2)c1ccc(-c2cncs2)cc1 | > 100 µM | > 99.5 µM
O=C(Nc1ccc2c(c1)CNC2)c1ncc(Cc2ccccc2)s1 | > 100 µM | > 99.5 µM
CCOC(=O)c1ncoc1CNC(=O)[C@H](Nc1ccc2c(c1)CNC2)c1cc(Cl)cc(C2CC2)c1 | > 100 µM | > 99.5 µM
O=C(NC1CCOCC1)[C@H](Nc1ccc2c(c1)CNC2)c1cc(Cl)cc2[nH]ncc12 | > 100 µM | > 99.5 µM
CC(C)(C)NC(=O)[C@H](Nc1ccc2c(c1)CNC2)c1cc(Cl)cc2[nH]ncc12 | > 100 µM | > 99.5 µM
O=C(Nc1ccc2c(c1)CNC2)c1cccc2sccc12 | > 100 µM | > 99.5 µM

SMILES | IC50 (Genome polyprotein [1]) | IC50 (Genome polyprotein [2])
O=C(Nc1ccc2c(c1)CNC2)c1cncc2[nH]ncc12 | > 100 µM | > 99.5 µM
O=C(Nc1ccc2c(c1)CNC2)N1CCC[C@H]1c1cc(C(F)(F)F)no1 | > 100 µM | > 99.5 µM
O=C(Nc1ccc2c(c1)CNC2)c1ccc2[nH]cnc2c1 | > 100 µM | > 99.5 µM
O=C(Nc1ccc2c(c1)CNC2)c1cc(F)c2[nH]ccc2c1 | > 100 µM | > 99.5 µM
O=C(Nc1ccc2c(c1)CNC2)c1ccnc2[nH]ccc12 | > 100 µM | > 99.5 µM
O=C(Nc1ccc2c(c1)CNC2)c1ccc2cc[nH]c2c1 | > 100 µM | > 99.5 µM
Cc1cccc(-c2nc3c(C(=O)Nc4ccc5c(c4)CNC5)cc(Cl)cc3[nH]2)c1O | 18.7 µM | 7.23 µM and 5.37 µM and 4.3 µM
NCc1cc(C=C2CC(C(=O)O)C2)cc(NC(=O)c2cc(Cl)cc(NC(=O)OCc3ccccc3)c2)c1 (centres undefined) | > 100 µM | > 99.5 µM
O=C(Nc1ccc2c(c1)CNC2)c1cccc2[nH]c(=O)[nH]c12 | 65.3 µM | > 99.5 µM
CC[C@H]1CN(C(=O)Nc2ccc3c(c2)CNC3)C[C@@H]1c1ccc(OC)cc1 | > 100 µM | > 99.5 µM
CC(C)Nc1c(-c2cc(Cl)cc3[nH]ncc23)nc2ccc3c(n12)CNC3 | > 100 µM | > 99.5 µM
O=C(Nc1ccc2c(c1)CNC2)c1ccc(OC(F)(F)F)cc1 | > 100 µM | > 99.5 µM
O=C(Nc1ccc2c(c1)CNC2)c1ncnc2[nH]ccc12 | > 100 µM | > 99.5 µM
O=C(Nc1ccc2c(c1)CNC2)c1cc(Cl)cc2[nH]c(-c3ncnn3C3CC3)nc12 | > 100 µM | > 99.5 µM
O=C(Nc1ccc2c(c1)CNC2)c1c(Cl)ccc2c1OCO2 | > 100 µM | > 99.5 µM
CC(C)CNC(=O)[C@H](Nc1ccc2c(c1)CNC2)c1cc(Cl)cc2[nH]ncc12 | > 100 µM | > 99.5 µM
CC(=O)Nc1cccc(C(=O)Nc2ccc3c(c2)CNC3)n1 | > 100 µM | > 99.5 µM
NCCCc1ccnc(NC(=O)c2cc(C3CC3)[nH]n2)c1 | > 100 µM | > 99.5 µM
NCc1cc(CC(=O)O)cc([C@H]2C[C@@H]2c2cc(Cl)cc(NC(=O)OCc3ccccc3)c2)c1 | > 100 µM | > 99.5 µM
CC(C)(C)NC(=O)[C@H](Nc1ccc2c(c1)CNC2)c1cc(Cl)cc(C2CC2)c1 | > 100 µM | > 99.5 µM
CCc1cnccc1-c1nc2c(C(=O)Nc3ccc4c(c3)CNC4)cc(Cl)cc2[nH]1 | > 100 µM | > 99.5 µM
CN(C)C(=O)CCCc1nc2c(C(=O)Nc3ccc4c(c3)CNC4)cc(Cl)cc2[nH]1 | > 100 µM | > 99.5 µM

SMILES | IC50 (Genome polyprotein [1]) | IC50 (Genome polyprotein [2])
CCOCCNC(=O)[C@H](Nc1ccc2c(c1)CNC2)c1cc(Cl)cc2[nH]ncc12 | > 100 µM | > 99.5 µM
O=C1Cc2ccc(NC(=O)c3cc(F)cc4[nH]ncc34)cc2N1 | > 100 µM | > 99.5 µM
O=C(Nc1ccc2c(c1)CNC2)c1cccc2ncccc12 | > 100 µM | > 99.5 µM
O=C(Nc1ccc2c(c1)CNC2)N1CCC[C@H](Cc2nccs2)C1 | > 100 µM | > 99.5 µM
CCCNC(=O)[C@H](Nc1ccc2c(c1)CNC2)c1cc(Cl)cc2[nH]ncc12 | > 100 µM | > 99.5 µM
O=C(Nc1nc(O)c2c(n1)CNC2)c1cc(Cl)cc2[nH]ncc12 | > 100 µM | > 99.5 µM
CC1(C)C(=O)Nc2ccc(C(=O)Nc3ccc4c(c3)CNC4)cc21 | > 100 µM | > 99.5 µM
O=C(Nc1ccc2c(c1)CNC2)c1ccc2ncccc2c1 | > 100 µM | > 99.5 µM
Clc1cccc([C@H](C#Cc2ccccc2)Nc2ccc3c(c2)CNC3)c1 | > 100 µM | > 99.5 µM
O=C(Nc1ccc2c(c1)CNC2)c1ccc2ncsc2c1 | > 100 µM | > 99.5 µM
O=C1Cc2c(cccc2C(=O)Nc2ccc3c(c2)CNCCC3)N1 | 90.1 µM | > 99.5 µM
O=C(Nc1ccc2c(c1)CNC2)c1cc(F)cc2[nH]c(-c3ccccc3)nc12 | 5.75 µM | 7.96 µM and 7.05 µM
CNC(=O)[C@H](Nc1ccc2c(c1)C(=O)OC2)c1cc(Cl)cc2[nH]ncc12 | > 100 µM | > 99.5 µM
O=C(Nc1ccc2c(c1)CNC2)c1cc(Cl)cc2[nH]c(C3(n4ccnn4)CC3)nc12 | > 100 µM | > 99.5 µM
O=C(Nc1ccc2c(c1)CNC2)c1cccc2[nH]cnc12 | > 100 µM | > 99.5 µM
C[C@](C#N)(Nc1ccc2c(c1)CNC2)c1cccc(Cl)c1 | > 100 µM | > 99.5 µM
O=C(Nc1ccc2c(c1)CNC2)c1ccc2[nH]ccc2c1 | > 100 µM | > 99.5 µM
C[C@H](C1CC1)n1ncc2c(C(=O)Nc3ccc4c(c3)CNC4)cc(C3CC3)nc21 | > 100 µM | > 99.5 µM
Cn1cc2c(C(=O)Nc3ccc4c(c3)CNC4)cccc2n1 | > 100 µM | > 99.5 µM
Cc1csc(CO[C@H]2CCN(C(=O)Nc3ccc4c(c3)CNC4)C2)n1 | > 100 µM | > 99.5 µM
Clc1cc([C@H](C#CC2CC2)Nc2ccc3c(c2)CNC3)c2cn[nH]c2c1 | > 100 µM | > 99.5 µM
